pIC50: −log10 of the molar value.
target: T1, Human neutrophil elastase (Homo sapiens, UniProt P08246); assay: Human Neutrophil Elastase Assay; assay type: biochemical; conditions: Neutrophil Elastase assay; substrate MeOSuc-Ala-Ala-Pro-Val-AMC 250 μM; 15 min preincubation, 60 min incubation at room temperature; pH 7.5
T1 construct: purchased Calbiochem 324681
T1 sequence (P08246 30-267): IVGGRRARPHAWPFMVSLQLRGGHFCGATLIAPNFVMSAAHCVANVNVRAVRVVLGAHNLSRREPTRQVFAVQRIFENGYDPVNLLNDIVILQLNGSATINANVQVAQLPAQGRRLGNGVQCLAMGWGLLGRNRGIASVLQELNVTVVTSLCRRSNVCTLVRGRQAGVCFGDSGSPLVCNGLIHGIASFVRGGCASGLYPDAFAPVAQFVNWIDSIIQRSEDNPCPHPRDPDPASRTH
Method in brief: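 Run in 100 mM Tris, 500 mM NaCl, pH 7.5 with 0.01% BSA, with compounds prediluted in DMSO then buffer (5% DMSO final). Fluorescence was read at 380 nm excitation/460 nm emission after enzyme inactivation. Values were normalised to inactivated-enzyme (0%) and uninhibited-enzyme (100%) controls.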

| Structure (SMILES) | pIC50 |
| --- | --- |
| CCNC(=O)c1cn(C(CC)c2ccc(C#N)cc2)c(C)c(-c2cccc(C(F)(F)F)c2)c1=O (centres unmarked) [Example 35, 1-[1-(4-Cyano-phenyl)-propyl]-6-methyl-4-oxo-5-(3-trifluoromethyl-phenyl)-1,4-dihydro-pyridine-3-carboxylic acid ethylamide] | 8.11 |
| Cc1c(-c2cccc(C(F)(F)F)c2)c(=O)c(C(=O)NCCc2ccccn2)cn1Cc1ccc(C#N)cc1 [Example 1.43] | 8.05 |
| Cc1c(-c2cccc(C(F)(F)F)c2)c(=O)c(C(=O)NCc2ccnnc2)cn1Cc1ccc(C#N)cc1 [Example 1.14] | 8.74 |
| Cc1c(-c2cccc(C(F)(F)F)c2)c(=O)c(C(=O)NCc2cn(C)cn2)cn1Cc1ccc(C#N)cc1 [Example 1.31] | 7.86 |
| COc1ccc(CNC(=O)c2cn(Cc3ccc(C#N)cc3)c(C)c(-c3cccc(C(F)(F)F)c3)c2=O)cn1 [Example 1.56] | 8.34 |
| CNC(=O)c1cn(Cc2ccc(C#N)c(F)c2)c(C)c(-c2cccc(C(F)F)c2)c1=O [Example 33] | 7.85 |
| Cc1c(-c2cccc(C(F)(F)F)c2)c(=O)c(C(=O)NCC(O)CO)cn1Cc1ccc(C#N)cc1 (centres unmarked) [Example 1.17, 1-(4-Cyano-benzyl)-6-methyl-4-oxo-5-(3-trifluoromethyl-phenyl)-1,4-dihydro-pyridine-3-carboxylic acid (2,3-dihydroxy-propyl)-amide] | 7.68 |
| Cc1c(-c2cccc(C(F)(F)F)c2)c(=O)c(C(N)=O)cn1Cc1ccc(C#N)cc1 [Example 1.52] | 8.02 |
| Cc1c(-c2cccc(C(F)F)c2)c(=O)c(C(=O)NCc2ccc(S(C)(=O)=O)cc2)cn1Cc1ccc(C#N)c(F)c1 [Example 39, 1-(4-Cyano-3-fluoro-benzyl)-5-(3-difluoromethyl-phenyl)-6-methyl-4-oxo-1,4-dihydro-pyridine-3-carboxylic acid 4-methanesulfonyl-benzylamide] | > 9.00 |
| Cc1c(-c2cccc(C(F)(F)F)c2)c(=O)c(C(=O)NCC2CCN(C)CC2)cn1Cc1ccc(C#N)cc1 [Example 1.2] | 7.32 |
| CCNC(=O)c1cn(Cc2ccc(C#N)cc2)c(C)c(-c2cccc(C(F)(F)F)c2)c1=O [Example 1.51] | 7.97 |
| Cc1c(-c2cccc(C(F)(F)F)c2)c(=O)c(C(=O)NCCOCCOCCO)cn1Cc1ccc(C#N)cc1 [Example 1.25] | 7.96 |
| Cc1c(-c2cccc(C(F)(F)F)c2)c(=O)c(C(=O)NCC(=O)N(C)C)cn1Cc1ccc(C#N)cc1 [Example 1.65] | 7.41 |
| Cc1c(-c2cccc(C(F)(F)F)c2)c(=O)c(C(=O)NC2CC(=O)N(C)C2)cn1Cc1ccc(C#N)cc1 (centres unmarked) [Example 1.61] | 7.94 |
| Cc1c(-c2cccc(C(F)(F)F)c2)c(=O)c(C(=O)NC2CCOC2)cn1Cc1ccc(C#N)cc1 (centres unmarked) [Example 1.37] | 7.02 |
| Cc1c(-c2cccc(C(F)(F)F)c2)c(=O)c(C(=O)NCc2ccn(C)n2)cn1Cc1ccc(C#N)cc1 [Example 1.34] | 8.05 |
| CCCNC(=O)c1cn(Cc2ccc(C#N)cc2)c(C)c(-c2cccc(C(F)(F)F)c2)c1=O [Example 1.18] | 7.62 |
| Cc1c(-c2cccc(C(F)(F)F)c2)c(=O)c(C(=O)NCCc2ccncc2)cn1Cc1ccc(C#N)cc1 [Example 1.45] | 8.12 |
| Cc1c(-c2cccc(C(F)(F)F)c2)c(=O)c(C(=O)NC2CCS(=O)(=O)C2)cn1Cc1ccc(C#N)cc1 (centres unmarked) [Example 1.64] | 7.76 |
| Cc1nnc(CNC(=O)c2cn(Cc3ccc(C#N)cc3)c(C)c(-c3cccc(C(F)(F)F)c3)c2=O)o1 [Example 1.15] | 8.10 |
| CCCS(=O)(=O)c1cc(C#N)ccc1Cn1cc(C(=O)NC)c(=O)c(-c2cccc(C(F)(F)F)c2)c1C [Example 25, 1-[4-Cyano-2-(propane-1-sulfonyl)-benzyl]-6-methyl-4-oxo-5-(3-trifluoromethyl-phenyl)-1,4-dihydro-pyridine-3-carboxylic acid methylamide] | 7.85 |

Other lines, results leading:

| pIC50 | Structure (SMILES) |
| --- | --- |
| 7.52 | Cc1c(-c2cccc(C(F)(F)F)c2)c(=O)c(C(=O)NCC2(O)CC2)cn1C(C)c1ccc(C#N)cn1 (centres unmarked) [Example 47.7] |
| 7.94 | Cc1c(-c2ccnc(C(F)(F)F)c2)c(=O)c(C(=O)NC2CCOCC2)cn1C(C)c1ccc(C#N)cc1 (centres unmarked) [Example 9.25] |
| 8.38 | CNC(=O)c1cn(C(C)c2ccc(C#N)cn2)c(C)c(-c2cccc(C(F)F)c2)c1=O (single isomer, unassigned) [Example 16A] |
| 8.92 | Cc1nnc(CNC(=O)c2cn(C(C)c3ccc(C#N)cc3)c(C)c(-c3cccc(C(F)F)c3)c2=O)o1 (centres unmarked) [Example 8.5] |
| 7.16 | Cc1c(-c2ccnc(C(F)(F)F)c2)c(=O)c(C(=O)NC2COCC2O)cn1C(C)c1ccc(C#N)cc1 (centres unmarked) [Example 9.40] |
| 8.38 | CNC(=O)c1cn(C(C)c2ccc(C#N)cc2)c(C)c(-c2cccc(CF)c2)c1=O (single isomer, unassigned) [Example 31B] |
| 8.28 | CS(=O)(=O)c1ccc(CNC(=O)c2cn(Cc3ccc(C#N)cc3)cc(-c3cccc(C(F)(F)F)c3)c2=O)nc1 [Example 13.2, 1-(4-Cyano-benzyl)-4-oxo-5-(3-trifluoromethyl-phenyl)-1,4-dihydro-pyridine-3-carboxylic acid (5-methanesulfonyl-pyridin-2-ylmethyl)-amide] |
| 8.19 | Cc1c(-c2cccc(C(F)(F)F)c2)c(=O)c(C(=O)NC2(C#N)CC2)cn1C(C)c1ccc(C#N)cn1 (centres unmarked) [Example 47.18] |
| 7.41 | Cc1c(-c2cccc(C(F)(F)F)c2)c(=O)c(C(=O)NCc2ccc(S(C)(=O)=O)cc2)cn1Cc1ccncc1 [Example 2.11] |
| > 9.00 | Cc1c(-c2cccc(C(F)(F)F)c2)c(=O)c(C(=O)NCc2ccc(S(C)(=O)=O)cc2)cn1Cc1ccc(C#N)cc1 [Example 2.12] |
| 9.00 | Cc1c(-c2cccc(C(F)F)c2)c(=O)c(C(=O)NCc2ccncc2)cn1C(C)c1ccc(C#N)cc1 (centres unmarked) [Example 8.20] |
| 7.75 | Cc1c(-c2cccc(C(F)(F)F)c2)c(=O)c(C(=O)NCC2(O)CC2)cn1C(C)c1ccc(C#N)cc1 (centres unmarked) [Example 7.16] |
| 8.18 | CS(=O)(=O)c1ccc(CNC(=O)c2cn(Cc3ccc(C#N)cc3)cc(-c3cccc(C(F)(F)F)c3)c2=O)cc1 [Example 13.1, 1-(4-Cyano-benzyl)-4-oxo-5-(3-trifluoromethyl-phenyl)-1,4-dihydro-pyridine-3-carboxylic acid 4-methanesulfonyl-benzylamide] |
| 7.17 | Cc1c(-c2cccc(C(F)(F)F)c2)c(=O)c(C(=O)NC2CCOC2)cn1C(C)c1ccc(C#N)cn1 (centres unmarked) [Example 47.9] |
| > 9.00 | COc1cc(C#N)ccc1Cn1cc(C(=O)NCc2ccc(S(C)(=O)=O)cn2)c(=O)c(-c2cccc(C(F)(F)F)c2)c1C [Example 4.7] |
| 8.48 | Cc1c(-c2ccnc(C(F)(F)F)c2)c(=O)c(C(=O)NCCS(C)(=O)=O)cn1C(C)c1ccc(C#N)cc1 (centres unmarked) [Example 9.2] |
| 7.94 | Cc1c(-c2ccnc(C(F)(F)F)c2)c(=O)c(C(=O)NCC(F)(F)F)cn1C(C)c1ccc(C#N)cc1 (centres unmarked) [Example 9.43] |
| 8.39 | Cc1c(-c2cccc(C(F)F)c2)c(=O)c(C(=O)NCCCN(C)C)cn1C(C)c1ccc(C#N)cc1 (centres unmarked) [Example 8.1] |

| pIC50 | Structure (SMILES) |
| --- | --- |
| 8.24 | Cc1c(-c2ccnc(C(F)(F)F)c2)c(=O)c(C(=O)NCCC(C)O)cn1C(C)c1ccc(C#N)cc1 (centres unmarked) [Example 9.60] |
| 8.89 | Cc1c(-c2cccc(C(F)F)c2)c(=O)c(C(=O)NCCCS(C)(=O)=O)cn1C(C)c1ccc(C#N)cc1 (centres unmarked) [Example 8.3] |
| 7.71 | Cc1cncc(-c2c(C)n(Cc3ccc(C#N)cc3)cc(C(=O)NCc3ccc(S(C)(=O)=O)cc3)c2=O)c1 [Example 6.4] |
| 8.60 | Cc1noc(CNC(=O)c2cn(C(C)c3ccc(C#N)cc3)c(C)c(-c3cccc(C(F)(F)F)c3)c2=O)n1 (centres unmarked) [Example 7.2] |
| 7.99 | Cc1c(-c2cccc(C(F)(F)F)c2)c(=O)c(C(=O)NCC(F)F)cn1C(C)c1ccc(C#N)cn1 (centres unmarked) [Example 47.19] |
| 8.14 | Cc1c(-c2cccc(C(F)(F)F)c2)c(=O)c(C(=O)NC2CCN(C)C2=O)cn1C(C)c1ccc(C#N)cn1 (centres unmarked) [Example 47.12] |
| 8.24 | Cc1c(-c2ccnc(C(F)(F)F)c2)c(=O)c(C(=O)NCC2COC2)cn1C(C)c1ccc(C#N)cc1 (centres unmarked) [Example 9.15] |
| 7.03 | Cc1c(-c2ccnc(C(F)(F)F)c2)c(=O)c(C(=O)NC(C)(C)C#N)cn1C(C)c1ccc(C#N)cc1 (centres unmarked) [Example 9.46] |
| 8.52 | CCCNC(=O)c1cn(C(C)c2ccc(C#N)cc2)c(C)c(-c2cccc(C(F)F)c2)c1=O (centres unmarked) [Example 8.27] |
| 8.62 | Cc1c(-c2cccc(C(F)F)c2)c(=O)c(C(=O)NCc2ccnn2C)cn1C(C)c1ccc(C#N)cc1 (centres unmarked) [Example 8.16] |
| 7.78 | Cc1c(-c2cccc(C(F)(F)F)c2)c(=O)c(C(=O)NCC2CC2)cn1C(C)c1ccc(C#N)cn1 (centres unmarked) [Example 47.5] |
| 8.33 | Cc1c(-c2cccc(C(F)(F)F)c2)c(=O)c(C(=O)NCC(C)O)cn1C(C)c1ccc(C#N)cc1 (centres unmarked) [Example 7.14] |
| 8.15 | CCCNC(=O)c1cn(C(C)c2ccc(C#N)cc2)c(C)c(-c2ccnc(C(F)(F)F)c2)c1=O (centres unmarked) [Example 9.14] |
| 7.91 | Cc1c(-c2ccnc(C(F)(F)F)c2)c(=O)c(C(=O)NCCN(C)C)cn1C(C)c1ccc(C#N)cc1 (centres unmarked) [Example 9.10] |
| 7.79 | Cc1c(-c2ccnc(C(F)(F)F)c2)c(=O)c(C(=O)NCC2CC3CCC2O3)cn1C(C)c1ccc(C#N)cc1 (centres unmarked) [Example 9.30] |
| 8.21 | Cc1c(-c2cccc(C(F)(F)F)c2)c(=O)c(C(=O)NC(C)C#N)cn1C(C)c1ccc(C#N)cn1 (centres unmarked) [Example 47.16] |
| 8.89 | Cc1c(-c2cccc(C(F)(F)F)c2)c(=O)c(C(=O)NCCCS(C)(=O)=O)cn1C(C)c1ccc(C#N)cc1 (centres unmarked) [Example 7.3] |
